Measured values as given in patent publication US20080248470A1, “GENETIC SCREENING FOR PREDICTING ANTIDEPRESSANT DRUG RESPONSE BASED ON THE MONOAMINE TRANSPORTER GENE POLYMORPHISM COMBINATION” (SUNGKYUNKWAN UNIVERSITY Foundation for Corporate …, priority 2007, published 2008).
Values joined by “and” are separate entries in the source; they are usually repeats but may differ in a detail not shown here. Equal entries are not always repeated. Where two headings read alike, the source gives them in different places.

What was measured:
[1] = test system: patients with major depressive episode; conditions: for change in depression score (HAM-D), FIG. 2: after 6 weeks
Procedure: In the present invention, experiments were conducted on patients other than the patient group of a prior report (reference 6). The patient subjects who participated in the experiments of the present invention were all […] and were enrolled in the Clinical Trials Program of the Samsung Medical Center Geropsychiatry and Affective Disorder Clinics (Seoul Korea). The affective disorder section of the Samsung Psychiatric Evaluation Schedule (SPES) uses the Korean version of the Structured Clinical Interview for DSM-IV Axis-I disorders (SCID-IV; 4th edition, reference 17).
In the present invention, at least one family member who is living with the patient was interviewed to supplement the patient's report of symptoms, behaviors, level of functioning, duration of episode, and recent treatments. The patient subjects who participated in the experiments of the present invention all fulfilled DSM-IV criteria for major depressive episode, the Korean version of the Structured Clinical Interview for DSM-IV Axis-I disorders (4th edition). Diagnoses were confirmed by a board certified psychiatrist on the basis of the SPES, case review notes, and other relevant data. A minimum baseline 17-item Hamilton depression scale (HAM-D) score of 15 was required.
Patient subjects, who received other psychotropic medications within 2 weeks of the study or fluoxetine within 4 weeks, were excluded. In the present invention, potential subjects were excluded for pregnancy, significant medical conditions, abnormal laboratory baseline values, unstable psychiatric features (e.g., suicidality), history of alcohol or drug dependence, seizures, head trauma with loss of consciousness, neurologic illness, or concomitant Axis I psychiatric disorder. The protocol was approved by the ethics review board of Samsung Medical Center, Seoul, Korea. Signed informed consent was obtained from all participants.
Dose titration was completed within 2 weeks.
Remission was defined as a HAM-D of less than 8 at 6 weeks (reference 19).
In the present invention, 208 patients (86% of the original participants) completed the six-week treatment trial. Sixteen patients receiving NRI treatment and 17 patients receiving SSRI treatment dropped out. […] Ten patients were excluded, either because their plasma drug concentrations were undetectable, consistent with noncompliance (N=6) or were in the range consistent with extensive drug metabolism (<200 ng/ml norfluoxetine-fluoxetine and <30 ng/ml sertraline, N=4) (reference 20). […] These 33 dropouts were excluded in data analyses.
Genomic DNA was extracted from whole blood using a Wizard Genomic Purification kit (Promega, Madison, Wis., USA). The present inventors analyzed the genotype of the 5-HTT promoter s/l polymorphism (5-HTTLPR), the genotype of the 5-HTT intron 2 s/l polymorphism, and the NET G1287A polymorphism in exon 9. For this purpose, the G1287A polymorphism in exon 9 was amplified by PCR with primers of SEQ ID NO: 1 and SEQ ID NO: 2 and digested by restriction enzyme Sau96I.

[2] = plasma drug levels by HPLC-MS/MS, trough samples at end of week 4

SMILES	Response rate ([1]; 5-HTT promoter (5-HTTLPR) ss genotype, 6 weeks, listed as NRI)	Response rate ([1]; NET A carrier + 5-HTT promoter l carrier, any intron 2 genotype) [%]	Response rate ([1]; NET A carrier + 5-HTT promoter ss, any intron 2 genotype) [%]	Response rate ([1]; NET G1287A AA genotype, 6 weeks)	Response rate ([1]; NET G1287A GA genotype, 6 weeks)	Response rate ([1]; NET G1287A GA+AA genotypes (A allele carriers), 6 weeks) [%]	Response rate ([1]; NET G1287A GA+AA genotypes (A allele carriers), 6 weeks, listed as NRI) [%]	change in depression score (HAM-D), FIG. 2 ([1]; NET G1287A GA+AA genotypes)	change in depression score (HAM-D), FIG. 2 ([1]; NET G1287A GG genotype)	Rate of remission (HAM-D of less than 8 at 6 weeks) ([1]; all patients who completed the 6-week trial) [%]	Response rate (50% or greater decrease in HAM-D score at 6 weeks) ([1]; all patients who completed the 6-week trial, listed as NRI)	expected treatment success rate when prescribed on NET G1287A examination ([1]; patient having the GG genotype) [%]	Plasma levels (mean ±SD) ([2]; non-responders) [ng/mL]	Plasma levels (mean ±SD) ([2]; responders) [ng/mL]
CNCCC=C1c2ccccc2CCc2ccccc21 [nortriptyline]	76% and 38/50(76.0) %	22	63	4/6(66.7) %	16/41(39.0) %	43	42.6	0.11	0.14	29	62% and 55/89 (61.8) %	83.35	123 ± 23	116 ± 21
CN[C@H]1CC[C@@H](c2ccc(Cl)c(Cl)c2)c2ccccc21 [sertraline]	–	–	–	–	–	–	–	–	–	–	–	–	72 ± 28	75 ± 29
